Data from patent US7265116B2, “Aryl and heteroaryl substituted tetrahydroisoquinolines and use thereof” (ARM Technology, Inc., priority 1999, dated 2007).

Tests used:
[1] = test system: dopamine transporter protein over the norepinephrine transporter protein; details: selectivity for dopamine transporter over norepinephrine transporter; cited from earlier work
[2] = cited from earlier work

CN1Cc2cc(-c3ccoc3)ccc2C(c2ccccc2)C1 (stereo not drawn)
melting point: 188 to 189 °C (dec.)

COC(=O)C(c1ccccc1)C1CCCCN1 (stereo not drawn) [Methylphenidate]
DAT/NET Ki ratio [1]: 0.1

CN1Cc2c(N)cccc2C(c2ccccc2)C1 (stereo not drawn) [Nomofensine]
side effect of long term administration [2]: fatal immune hemolytic anemia
